Like-named read-outs stand apart in the source and are kept apart here.
How the values were obtained:
GST-PPARG-LBD = GST-PPARG-LBD (Homo sapiens (Human), UniProt P37231); assay: Lanthascreen PPARG competitive binding assay (Invitrogen, TR-FRET); conditions: NA = not active, inc = incomplete curve, read-out: IC50 (nM) Lantha
Procedure, shortened: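 TR-FRET competitive binding of GST-PPARG-LBD with 5 nM Tb-GST-antibody and 5 nM Fluormone Pan-PPAR Green tracer, in TR-FRET buffer C. Compound serially diluted from 10 μM, 2 h dark incubation, in triplicate. Readout is 520/490 nm emission ratio (340 nm excitation), expressed as fold change over 2% DMSO control.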

[1] = system: PPARG (murine PPARg2 or full-length human PPARG, 3xPPRE-luciferase reporter); assay: Cell-based PPRE-luciferase transactivation assay in COS-1 cells; conditions: for EC50: PPRE-luciferase, COS-1 cells, NA = not active, read-out: EC50 (nM) PPRE; for PPRE transactivation (% in parentheses): rosiglitazone = 100%
Protocol: Cell-Based Transactivation Assay:
PPRE is a DNA that contains a binding site for PPARG; thus PPRE is a PPAR response element, used herein as a promoter reporter. The binding site is a DR1 response element with the sequence AGGTCA repeated 3 times in tandem and then fused to a construct for luciferase.
Thus, PPRE is the basis of the cell based transactivation assay described below. The plasmid DNA is co-transfected along with a plasmid for PPARG into COS-1 cells. After an overnight incubation, cells are treated with DMSO or compounds.
Confluent COS-1 cells were transfected with 4.5 μg murine PPARg2-pSV Sport or full-length human PPAR9-pSport6, 4.5 μg 3×PPRE-luciferase reporter and 27 μL X-treme Gene 9 transfection reagent in serum-free opti-mem media (Gibco), followed by overnight incubation at 37° C., 5% CO2. Transfected cells were plated in white Perkin Elmer 384-well plates and incubated 4 hours. […] After 18 hour incubation, treated cells were developed with Brite Lite Plus (Perkin Elmer) and read in 384-well Luminescence Perkin Elmer EnVision Multilabel plate reader. Graphs were plotted in triplicate in GraphPad Prism Software as fold change of treated cells over DMSO control cells.

[2] = molecular target: Gal-4-PPAR (human PPAR LBD fused to GAL4 DNA-binding domain) (Homo sapiens (Human), UniProt P37231); assay: GAL4-PPARG LBD / UAS-luciferase transactivation assay in HEK 293T cells; format: cell-based; conditions: for activation at 10 µM: HEK-293T, 18 h, read-out: % transactivation at 10 μM (GAL4)
[3] = Lanthascreen competitive binding
[4] = Lanthascreen PPARG competitive binding
[5] = GAL4 transactivation, read-out: EC50 (nM) GAL4

Sequence of GST-PPARG-LBD (P37231 238-503): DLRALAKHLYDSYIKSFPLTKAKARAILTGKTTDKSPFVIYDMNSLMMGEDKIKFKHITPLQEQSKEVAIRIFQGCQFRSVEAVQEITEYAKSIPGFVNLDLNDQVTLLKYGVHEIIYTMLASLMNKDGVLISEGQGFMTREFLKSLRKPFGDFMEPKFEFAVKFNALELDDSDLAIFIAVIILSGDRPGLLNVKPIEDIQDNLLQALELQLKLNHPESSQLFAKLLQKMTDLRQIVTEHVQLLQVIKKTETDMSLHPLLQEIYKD
Sequence of Gal-4-PPAR (human PPAR LBD fused to GAL4 DNA-binding domain) (P37231 238-503): as above

Row | SMILES | IC50 (GST-PPARG-LBD; [3]) [nM] | EC50 [1] [nM] | PPRE transactivation (% in parentheses) [1] | IC50 (GST-PPARG-LBD; [4]) [nM] | EC50 [2, 5] [nM] | activation at 10 µM [2] [%] | EC50 [2] [nM]
1 | Cc1c(C)n(Cc2ccc(-c3ccccc3C#N)cc2)c2ccc(C(=O)N[C@@H](C)c3ccc(Br)cc3)cc12 [Example 35, (S)—N-(1-(4-Bromophenyl)ethyl)-1-((2′-cyano-[1,1′-biphenyl]-4-yl)methyl)-2,3-dimethyl-1H-indole-5-carboxamide] | 40 | 380 | (9%) | – | – | – | –
2 | CCC(NC(=O)c1ccc2c(c1)c(C)c(C)n2Cc1ccc(-c2ccccc2-c2nnn[nH]2)cc1)c1ccccc1 (stereo not shown) [Example 36, 1-((2′-(1H-Tetrazol-5-yl)-[1,1′-biphenyl]-4-yl)methyl)-2,3-dimethyl-N-(1-phenylpropyl)-1H-indole-5-carboxamide] | 6 | 2 | (23%) | – | – | – | –
5 | Cc1c(C)n(Cc2ccc(-c3ccccc3C(=O)O)cc2)c2ccc(C(=O)NCc3ccc(F)c(F)c3)cc12 [Example 77, 4′-((5-(3,4-difluorobenzylcarbamoyl)-2,3-dimethyl-1H-indol-1-yl)methyl)biphenyl-2-carboxylic acid] | – | 95 | (20%) | – | – | – | –
6 | Cc1c(C)n(Cc2ccc(-c3ccccc3C(=O)O)cc2)c2ccc(C(=O)N[C@@H](C)c3cccc(C4CC4)n3)cc12 [Example 274, (S)-4′-((5-(1-(6-cyclopropylpyridin-2-yl)ethylcarbamoyl)-2,3-dimethyl-1H-indol-1-yl)methyl)biphenyl-2-carboxylic acid] | – | – | – | 19 | 159 | 30 | –
7 | Cc1c(C)n(Cc2ccc(-c3ccccc3C(=O)O)cc2)c2ccc(C(=O)NC(C)c3cncc(Br)c3)cc12 (stereo not shown) [Example 275, 4′-((5-(1-(5-bromopyridin-3-yl)ethylcarbamoyl)-2,3-dimethyl-1H-indol-1-yl)methyl)biphenyl-2-carboxylic acid] | – | – | – | 8 | 572 | 35 | –
8 | Cc1cccc([C@H](C)NC(=O)c2ccc3c(c2)c(C)c(C)n3Cc2ccc(-c3ccccc3C(=O)O)cc2)c1 [Example 295, (S)-4′-((2,3-Dimethyl-5-((1-(m-tolyl)ethyl)carbamoyl)-1H-indol-1-yl)methyl)-[1,1′-biphenyl]-2-carboxylic acid] | – | – | – | 11 | 60 | 10 | –
9 | Cc1c(C)n(Cc2ccc(-c3ccccc3C(=O)O)cc2)c2ccc(C(=O)N[C@H](C)c3cccc(Br)c3)cc12 [Example 296, (R)-4′-((5-((1-(3-Bromophenyl)ethyl)carbamoyl)-2,3-dimethyl-1H-indol-1-yl)methyl)-[1,1′-biphenyl]-2-carboxylic acid] | – | – | – | < 1 | 69 | 35 | –
10 | Cc1c(C)n(Cc2ccc(-c3ccccc3C(=O)O)cc2)c2ccc(C(=O)N[C@@H](C)c3ccc(C(F)(F)F)cc3F)cc12 [Example 298, (S)-4′-((5-((1-(2-Fluoro-4-(trifluoromethyl)phenyl)ethyl)carbamoyl)-2,3-dimethyl-1H-indol-1-yl)methyl)-[1,1′-biphenyl]-2-carboxylic acid] | – | – | – | 11 | 448 | 10 | –
11 | Cc1c(C)n(Cc2ccc(-c3ccccc3C(=O)O)cc2)c2ccc(C(=O)N[C@@H](C)c3cccc(C(F)(F)F)c3F)cc12 [Example 299, (S)-4′-((5-((1-(2-Fluoro-3-(trifluoromethyl)phenyl)ethyl)carbamoyl)-2,3-dimethyl-1H-indol-1-yl)methyl)-[1,1′-biphenyl]-2-carboxylic acid] | – | – | – | 27 | 346 | 15 | –
12 | Cc1c(C)n(Cc2ccc(-c3ccccc3C(=O)O)cc2)c2ccc(C(=O)N[C@@H](C)c3c(F)cccc3C(F)(F)F)cc12 [Example 300, (S)-4′-((5-((1-(2-Fluoro-6-(trifluoromethyl)phenyl)ethyl)carbamoyl)-2,3-dimethyl-1H-indol-1-yl)methyl)-[1,1′-biphenyl]-2-carboxylic acid] | – | – | – | 9 | 167 | 15 | –
13 | Cc1c(C)n(Cc2ccc(-c3ccccc3C(=O)O)cc2)c2ccc(C(=O)N[C@@H](C)c3cc(F)c(F)cc3F)cc12 [Example 301, (S)-4′-((2,3-Dimethyl-5-((1-(2,4,5-trifluorophenyl)ethyl)carbamoyl)-1H-indol-1-yl)methyl)-[1,1′-biphenyl]-2-carboxylic acid] | – | – | – | 8 | 198 | 40 | –
14 | Cc1c(C)n(Cc2ccc(-c3ccccc3C(=O)O)cc2)c2ccc(C(=O)N[C@@H](C)c3cc(C(F)(F)F)ccc3Cl)cc12 [Example 302, (S)-4′-((5-((1-(2-Chloro-5-(trifluoromethyl)phenyl)ethyl)carbamoyl)-2,3-dimethyl-1H-indol-1-yl)methyl)-[1,1′-biphenyl]-2-carboxylic acid] | – | – | – | 3 | 48 | 20 | –
15 | Cc1c(C)n(Cc2ccc(-c3ccccc3C(=O)O)cc2)c2ccc(C(=O)N[C@@H](C)c3ccc(Cl)cc3Cl)cc12 [Example 303, (S)-4′-((5-((1-(2,4-Dichlorophenyl)ethyl)carbamoyl)-2,3-dimethyl-1H-indol-1-yl)methyl)-[1,1′-biphenyl]-2-carboxylic acid] | – | – | – | 4 | 219 | 25 | –
16 | Cc1c(C)n(Cc2ccc(-c3ccccc3C(=O)O)cc2)c2ccc(C(=O)N[C@@H](C)c3ccc(C4CC4)cc3)cc12 [Example 304, (S)-4′-((5-((1-(4-Cyclopropylphenyl)ethyl)carbamoyl)-2,3-dimethyl-1H-indol-1-yl)methyl)-[1,1′-biphenyl]-2-carboxylic acid] | – | – | – | 50 | 2420 | 15 | –
17 | CNC(=O)c1ccccc1-c1ccc(Cn2c(C)c(C)c3cc(C(=O)N[C@@H](C)c4cccc(C(C)C)c4)ccc32)cc1 [Example 311, (S)—N-(1-(3-Isopropylphenyl)ethyl)-2,3-dimethyl-1-((2′-(methylcarbamoyl)-[1,1′-biphenyl]-4-yl)methyl)-1H-indole-5-carboxamide] | – | – | – | 76 | 441 | 10 | –
18 | Cc1c(C)n(Cc2ccc(-c3ccccc3C(=O)N(C)C)cc2)c2ccc(C(=O)N[C@@H](C)c3cccc(C(C)C)c3)cc12 [Example 312, (S)-1-((2′-(Dimethylcarbamoyl)-[1,1′-biphenyl]-4-yl)methyl)-N-(1-(3-isopropylphenyl)ethyl)-2,3-dimethyl-1H-indole-5-carboxamide] | – | – | – | 148 | 914 | 10 | –
19 | Cc1c(C)n(Cc2ccc(-c3ccccc3C(=O)NO)cc2)c2ccc(C(=O)N[C@@H](C)c3cccc(C(C)C)c3)cc12 [Example 313] | – | – | – | 77 | – | 4 | 242
20 | Cc1c(C)n(Cc2ccc(-c3ccccc3C(=O)NS(C)(=O)=O)cc2)c2ccc(C(=O)N[C@@H](C)c3cccc(C(C)C)c3)cc12 [Example 314, (S)—N-(1-(3-Isopropylphenyl)ethyl)-2,3-dimethyl-1-((2′-((methylsulfonyl)carbamoyl)-[1,1′-biphenyl]-4-yl)methyl)-1H-indole-5-carboxamide] | – | – | – | 285 | 1650 | 5 | –
21 | Cc1c(C)n(Cc2ccc(-c3ccccc3C(N)=O)cc2)c2ccc(C(=O)N[C@@H](C)c3cccc(C(C)C)c3)cc12 [Example 315, (S)-1-((2′-Carbamoyl-[1,1′-biphenyl]-4-yl)methyl)-N-(1-(3-isopropylphenyl)ethyl)-2,3-dimethyl-1H-indole-5-carboxamide] | – | – | – | 62 | – | 2 | 137
22 | Cc1c(C)n(Cc2ccc(-c3ccccc3C(=O)O)cc2)c2ccc(C(=O)NCc3ccc(OC(F)(F)F)cc3)cc12 [compound 15, 4′-((2,3-Dimethyl-5-(4-(trifluoromethoxy)benzylcarbamoyl)-1H-indol-1-yl)methyl)biphenyl-2-carboxylic acid] | – | 83 | (20%) | – | – | – | –
